# Laboratory results from US20240050429A1, “PAZOPANIB PHARMACEUTICAL COMPOSITION, INJECTION AND PREPARATION METHOD AND USE THEREOF” (Qx Therapeutics, Inc., priority 2022, published 2024).
# Structures can show the parent of a compound that is named as a salt.
# System: hydrochloric acid-induced acute lung injury in mice
# Assay: Hydrochloric acid-induced acute lung injury, lung permeability, tail intravenous injection of Example 2
# Type: in vivo
# Design: dose or concentration left out as unconfirmed
# Protocol: 1. In this example, […], respectively, which corresponded to the freshly prepared pharmaceutical compositions in Example 2 (being freshly formulated referred to within 1 day after the formulation was completed), and the therapeutic effect of these doses on hydrochloric acid-induced acute lung injury in mice were determined, wherein the body weight of each mouse was 20 g.
# 8 to 10 weeks old C57/BL male and female mice were infused with 0.05 M HCl at 2.5 μl/bwg through the trachea. 4 hours later, 100 μl of FITC-labeled albumin (10 mg/ml) was injected through the posterior segment of eyeball. Finally, the mice were euthanized and lung tissue samples were collected 6 hours after the induction of injury to measure changes in pulmonary permeability and lung histopathology. […] Meanwhile, plasma was collected and bronchoalveolar lavage was performed after mice were euthanized.
smiles,measurement,value
"Cc1ccc(Nc2nccc(N(C)c3ccc4c(C)n(C)nc4c3)n2)cc1S(N)(=O)=O [Comparative Example 1, pazopanib hydrochloride]",Percentage (%) of reduced lung permeability,45 to 70%
